Data set [1] can be described thus: Dissociation constant, pKa of the compound. It is filed as physicochemical.
Data set [2] in a line: Octanol-buffer partition coefficient, log D of the compound at pH 7.4 after 30 mins by shake-flask method. The format is physicochemical.
Data set [3] can be described thus: Intrinsic clearance in human liver microsomes. The format is ADME. The following applies: read-out: CLH. (In general: Microsomes from liver hold many membrane-bound enzymes, among them those of drug oxidation.)
Data set [4] in a line: Lipophilicity, log D of the compound by HPLC analysis. It is filed as physicochemical.
Data set [5] can be described thus: Aqueous solubility of the compound in phosphate buffer at pH 7.4 after 24 hrs by LC-UV analysis. It is filed as physicochemical.
The nature of data set [6]: Plasma concentration in mouse at 20 mg/kg, po measured at 1 hr. The format is ADME, organism-based. Also on record: dose 20 mg/kg, route oral.
The nature of data set [7]: Drug uptake in mouse brain at 20 mg/kg, po measured at 1 hr. It is filed as ADME, organism-based. On the set-up: dose 20 mg/kg, route oral. The following applies: read-out: Drug uptake.

For orientation: pKa means the pH at which an ionisable group is half protonated. A higher pKa goes with a weaker acid or stronger base. One may read the logD as the decadic logarithm of the distribution of all forms, ionised or not, between an organic phase and buffer at a given pH. Low values mean a more hydrophilic compound, high ones a more lipophilic compound. In general, solubility refers to how much of the substance goes into solution per volume. Low readings indicate a poorly soluble substance, high ones a readily soluble substance.

≈ marks a conversion by molar mass, not a printed value.

The compound `Cc1ccccc1-c1nc2cn(-c3cccc(Cl)c3)nc2c(=O)n1CC1CCCN(C(C)C)C1` (racemic) displayed a pKa in data set [1] of 9.8. Further, the logD at 0.5 h in data set [2] is 3.

Take `COCCN1CCC[C@H](Cn2c(-c3cccnc3C)nc3cn(C4CCCCC4)nc3c2=O)C1`: the logD at 0.5 h in data set [2] came out at 1.4.

For `Cc1ncccc1-c1nc2cn(-c3cccc(OC(C)C)c3)nc2c(=O)n1C[C@H]1CCCN(C[C@H]2CCCO2)C1`, the logD at 0.5 h in data set [2] turned out to be 2.7. In data set [3], the microsomal CLint worked out at 51 µL/min/mg.

As for `Cc1ccccc1-c1nc2cn(-c3ccc(C#N)cc3)nc2c(=O)n1CC1CCCN(C(C)C)C1` (racemic), in data set [1], the pKa was determined as 10.

In data set [2], `CCCOc1cccc(-n2cc3nc(-c4cccnc4C)n(C[C@H]4CCCN(C[C@H]5CCCO5)C4)c(=O)c3n2)c1` returned a logD at 0.5 h of 2.9. Besides, the microsomal CLint in data set [3] turned out to be 67 µL/min/mg.

`COCCN1CCC[C@@H](Cn2c(-c3ccccc3C)nc3cn(-c4ccc(Cl)cc4)nc3c2=O)C1` yielded a pKa in data set [1] of 8.5. In addition, the logD at 0.5 h in data set [2] is 3.3. In addition, the logD in data set [4] came out at 3.7.

The compound `COc1cccc(-n2cc3nc(-c4cccnc4C)n(C[C@H]4CCCN(C(C)C)C4)c(=O)c3n2)c1` registered a solubility at 24 h in data set [5] greater than 2700 µM. The pKa in data set [1] amounted to 9.7. Also, the logD at 0.5 h in data set [2] is 1.3.

As to `COc1cccc(-n2cc3nc(C)n(C[C@H]4CCCN(C[C@H]5CCCO5)C4)c(=O)c3n2)c1`, in data set [2], the logD at 0.5 h turned out to be 1.9. In data set [3], the microsomal CLint is 16 µL/min/mg.

As to `Cc1ccccc1-c1nc2cn(-c3cccc(C#N)c3)nc2c(=O)n1CC1CCCN(C(C)C)C1` (racemic), the pKa in data set [1] worked out at 9.9. Further, the logD at 0.5 h in data set [2] worked out at 1.8.

On to `COCCN1CCC[C@H](Cn2c(-c3cccnc3C)nc3cn(-c4cccc(OC)c4)nc3c2=O)C1`, for which the pKa in data set [1] turned out to be 8.4. For the same compound, the logD at 0.5 h in data set [2] is 1.3.

For `Cc1ccccc1-c1nc2cn(-c3ccc(F)cc3)nc2c(=O)n1CC1CCCN(C(C)C)C1` (racemic), in data set [1], the pKa was found to be 10. The logD at 0.5 h in data set [2] was 2.3.

Compound `COc1ccc(-n2cc3nc(-c4cccnc4C)n(C[C@H]4CCCN(C[C@H]5CCCO5)C4)c(=O)c3n2)cc1` came in with a logD at 0.5 h in data set [2] of 1.9. Further, the microsomal CLint in data set [3] is 21 µL/min/mg.

In the case of `Cc1ccccc1-c1nc2ccc(-c3ccc(Cl)cc3)cc2c(=O)n1C[C@H]1CCCN(C(C)C)C1`, in data set [5], the concentration in solution (solubility at 24 h) came to 45 µM (≈ 21.9 µg/mL). In data set [2], this compound yielded a logD at 0.5 h greater than 4.3. The logD in data set [4] turned out to be 5.

Compound `Cc1ccccc1-c1nc2cc(-c3ccc(Cl)cc3)sc2c(=O)n1CC1CCCN(C(C)C)C1` (racemic) came in with a logD in data set [4] of 4.8.

For the compound `Cc1ncccc1-c1nc2cn(-c3ccc(C#N)cc3)nc2c(=O)n1CC1CCCN(C2COC2)C1` (racemic), the pKa in data set [1] came to 6.4. Further, in data set [2], the logD at 0.5 h amounted to 1.2.

The compound `COCCN1CCC[C@@H](Cn2c(-c3ccccc3C)nc3cc(-c4ccc(Cl)cc4)sc3c2=O)C1` displayed a pKa in data set [1] of 8.5. This compound also gave a logD at 0.5 h in data set [2] greater than 4.3. The logD in data set [4] was determined as 5.6.

For the compound `COCCN1CCCC(Cn2c(-c3cccnc3C)nc3cn(-c4ccc(C#N)cc4)nc3c2=O)C1` (racemic), in data set [1], the pKa was found to be 8.5. The compound also showed a logD at 0.5 h in data set [2] of 1.1.

In turn, `COc1ccc(-n2cc3nc(-c4ccccc4C)n(CC4CCCN(C(C)C)C4)c(=O)c3n2)cc1` (racemic) showed a pKa in data set [1] of 10. Moreover, in data set [2], the logD at 0.5 h came to 2.4.

Consider `Cc1ncccc1-c1nc2cn(-c3cccc(OC(F)F)c3)nc2c(=O)n1C[C@H]1CCCN(C[C@H]2CCCO2)C1`, for which the logD at 0.5 h in data set [2] amounted to 2.2. Also, the microsomal CLint in data set [3] came out at 33 µL/min/mg.

Compound `CCOc1cccc(-n2cc3nc(-c4cccnc4C)n(C[C@H]4CCCN(C[C@H]5CCCO5)C4)c(=O)c3n2)c1` showed a logD at 0.5 h in data set [2] of 2.5. Also, in data set [3], the microsomal CLint was determined as 30 µL/min/mg.

`COc1cccc(-n2cc3nc(-c4cccnc4C)n(C[C@H]4CCCN(C[C@H]5CCCO5)C4)c(=O)c3n2)c1` registered a solubility at 24 h in data set [5] greater than 1500 µM. Also, the concentration at 1 h in data set [6] came out at 1200 nM; in data set [7], 240 nM. Further, the logD at 0.5 h in data set [2] was 2. Besides, the microsomal CLint in data set [3] was 17 µL/min/mg.

Compound `Cc1ccccc1-c1nc2cn(-c3ccc(Cl)cc3)nc2c(=O)n1CC1CCCN(C(C)C)C1` (racemic) yielded a pKa in data set [1] of 10. Also, the logD in data set [4] is 3.2.

As for `Cc1ncccc1-c1nc2cn(-c3ccccc3)nc2c(=O)n1C[C@H]1CCCN(C[C@H]2CCCO2)C1`, the logD at 0.5 h in data set [2] turned out to be 1.7. Also, the microsomal CLint in data set [3] is 15 µL/min/mg.

On to `COCCN1CCC[C@@H](Cn2c(-c3ccccc3C)nc3nc(-c4ccc(Cl)cc4)sc3c2=O)C1`, for which the pKa in data set [1] worked out at 9.2. In data set [2], the logD at 0.5 h came out at 3.5. Moreover, the logD in data set [4] turned out to be 5.1.

Compound `COc1cccc(-n2cc3nc(CC(C)C)n(C[C@H]4CCCN(C[C@H]5CCCO5)C4)c(=O)c3n2)c1` yielded a logD at 0.5 h in data set [2] of 3.1. Moreover, the microsomal CLint in data set [3] was 60 µL/min/mg.

`COc1cccc(-n2cc3nc(-c4ccccc4C)n(CC4CCCN(C(C)C)C4)c(=O)c3n2)c1` (racemic) returned a pKa in data set [1] of 10. The logD at 0.5 h in data set [2] was determined as 2.5.

(Values after ChEMBL document CHEMBL3217433, “Identification of pyrazolo-pyrimidinones as GHS-R1a antagonists and inverse agonists for the treatment of obesity” (Medchemcomm, 2013).)
